Assay results reported in patent US12581252B2, “Substituted pyrrolo[3,4-b]pyridines as PI3K-α inhibitors” (Relay Therapeutics, Inc., priority 2020, dated 2026).

Target: H1047R PIK3CA enzyme (Homo sapiens, UniProt P42336, H1047R)
Assay: ADP-Glo Biochemical PIK3CA Kinase Assay

Chain of H1047R PIK3CA enzyme (P42336 whole entry H1047R): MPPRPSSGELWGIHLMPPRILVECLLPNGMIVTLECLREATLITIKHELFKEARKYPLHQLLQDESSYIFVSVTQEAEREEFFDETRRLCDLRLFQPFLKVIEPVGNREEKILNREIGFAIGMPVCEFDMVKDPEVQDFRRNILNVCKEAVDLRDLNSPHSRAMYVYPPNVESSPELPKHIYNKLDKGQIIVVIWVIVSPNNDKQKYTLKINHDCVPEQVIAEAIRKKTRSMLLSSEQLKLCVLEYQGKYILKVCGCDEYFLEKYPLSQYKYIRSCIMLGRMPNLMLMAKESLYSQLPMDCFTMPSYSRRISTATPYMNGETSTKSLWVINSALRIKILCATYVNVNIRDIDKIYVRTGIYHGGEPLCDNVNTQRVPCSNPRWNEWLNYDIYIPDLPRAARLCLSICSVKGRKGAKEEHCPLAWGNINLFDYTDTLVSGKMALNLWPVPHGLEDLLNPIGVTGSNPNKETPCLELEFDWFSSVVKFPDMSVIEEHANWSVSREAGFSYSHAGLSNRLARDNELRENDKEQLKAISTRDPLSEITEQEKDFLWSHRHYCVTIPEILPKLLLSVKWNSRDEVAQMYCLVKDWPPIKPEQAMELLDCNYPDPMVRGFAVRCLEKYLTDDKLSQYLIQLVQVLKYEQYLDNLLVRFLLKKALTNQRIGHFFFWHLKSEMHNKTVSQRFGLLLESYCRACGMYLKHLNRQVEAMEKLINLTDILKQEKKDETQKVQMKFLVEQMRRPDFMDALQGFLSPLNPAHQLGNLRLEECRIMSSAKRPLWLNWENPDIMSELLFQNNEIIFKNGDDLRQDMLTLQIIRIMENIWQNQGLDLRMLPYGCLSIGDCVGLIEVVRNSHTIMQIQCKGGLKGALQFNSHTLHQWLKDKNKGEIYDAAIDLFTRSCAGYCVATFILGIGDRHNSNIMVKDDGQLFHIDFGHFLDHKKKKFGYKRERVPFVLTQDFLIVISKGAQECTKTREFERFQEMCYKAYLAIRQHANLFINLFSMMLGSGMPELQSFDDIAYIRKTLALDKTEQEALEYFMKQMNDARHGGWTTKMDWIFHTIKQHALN
Chain of H1047R PIK3CA enzyme (P27986 whole entry partner): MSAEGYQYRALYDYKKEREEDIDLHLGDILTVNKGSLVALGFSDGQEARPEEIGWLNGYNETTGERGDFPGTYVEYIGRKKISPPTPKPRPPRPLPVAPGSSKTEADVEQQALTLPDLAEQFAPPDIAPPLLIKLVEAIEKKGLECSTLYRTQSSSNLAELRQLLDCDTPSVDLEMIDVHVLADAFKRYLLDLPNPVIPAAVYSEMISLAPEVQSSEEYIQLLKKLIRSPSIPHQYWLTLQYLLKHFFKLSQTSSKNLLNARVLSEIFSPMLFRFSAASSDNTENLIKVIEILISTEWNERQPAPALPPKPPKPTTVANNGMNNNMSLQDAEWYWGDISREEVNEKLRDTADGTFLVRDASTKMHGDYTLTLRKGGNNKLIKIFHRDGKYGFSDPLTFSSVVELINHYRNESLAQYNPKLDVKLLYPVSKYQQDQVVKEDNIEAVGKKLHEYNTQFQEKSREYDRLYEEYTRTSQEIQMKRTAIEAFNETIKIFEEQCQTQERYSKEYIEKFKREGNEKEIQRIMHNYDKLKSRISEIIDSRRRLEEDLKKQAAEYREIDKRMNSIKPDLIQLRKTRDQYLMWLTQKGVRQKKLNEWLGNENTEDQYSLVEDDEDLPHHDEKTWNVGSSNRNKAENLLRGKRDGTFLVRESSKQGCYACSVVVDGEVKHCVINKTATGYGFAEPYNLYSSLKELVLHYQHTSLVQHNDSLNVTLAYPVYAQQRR

| SMILES | IC50 [µM] |
| --- | --- |
| CN(C)S(=O)(=O)n1cc(-c2cc(NC(=O)c3cc(F)cc(C(F)(F)F)c3)c3c(c2)C(=O)NC3c2cc(F)ccc2Cl)cn1 (stereo not drawn) [Compound I-1592] | ≤ 0.1 |
| O=C(Nc1cc(CS(=O)(=O)c2ccccc2)cc2c1[C@@H](c1cc(F)ccc1Cl)NC2=O)c1cc(F)cc(C(F)(F)F)c1 [Compound I-1593] | 1 to 10 |
| N#Cc1cccc(S(=O)(=O)Cc2cc(NC(=O)c3cc(F)cc(C(F)(F)F)c3)c3c(c2)C(=O)N[C@H]3c2cc(F)ccc2Cl)c1 [Compound I-1594] | ≤ 0.1 |
| N#Cc1cccc(S(=O)(=O)Cc2cc(NC(=O)c3cc(F)cc(C(F)(F)F)c3)c3c(c2)C(=O)N[C@@H]3c2cc(F)ccc2Cl)c1 [Compound I-1595] | 1 to 10 |
| CN(C)S(=O)(=O)n1nccc1-c1cc(NC(=O)c2cc(F)cc(C(F)(F)F)c2)c2c(c1)C(=O)N[C@@H]2c1cc(F)ccc1Cl [Compound I-1598] | 0.5 to 1 |
| CN(C)S(=O)(=O)n1nccc1-c1cc(NC(=O)c2cc(F)cc(C(F)(F)F)c2)c2c(c1)C(=O)N[C@H]2c1cc(F)ccc1Cl [Compound I-1599] | ≤ 0.1 |
| COc1cnc2ccc(-c3cc(NC(=O)c4cc(F)cc(C(F)(F)F)c4)c4c(c3)C(=O)NC4c3cc(F)ccc3Cl)cc2c1 (stereo not drawn) [Compound I-1602] | ≤ 0.1 |
| N#Cc1cnc2ccc(-c3cc(NC(=O)c4cc(F)cc(C(F)(F)F)c4)c4c(c3)C(=O)NC4c3cc(F)ccc3Cl)cc2c1 (stereo not drawn) [Compound I-1603] | ≤ 0.1 |
| CC(C)(O)c1cnc2ccc(-c3cc(NC(=O)c4cc(F)cc(C(F)(F)F)c4)c4c(c3)C(=O)N[C@H]4c3cc(F)ccc3Cl)cc2c1 [Compound I-1604] | ≤ 0.1 |
| CC(C)(O)c1cnc2ccc(-c3cc(NC(=O)c4cc(F)cc(C(F)(F)F)c4)c4c(c3)C(=O)N[C@@H]4c3cc(F)ccc3Cl)cc2c1 [Compound I-1605] | 10 to 100 |
| O=C(Nc1cc(-c2ccn3nc(Cl)nc3c2)cc2c1[C@@H](c1cc(F)ccc1Cl)NC2=O)c1cc(F)cc(C(F)(F)F)c1 [Compound I-1606] | 0.1 to 0.5 |
| O=C(Nc1cc(-c2ccc3ncnn3c2)nc2c1C(C1CCCCC1)NC2=O)c1cc(F)cc(C(F)(F)F)c1 (stereo not drawn) [Compound I-1607] | 0.5 to 1 |
| O=C(Nc1cc(-c2cnn(-c3cnccn3)c2)cc2c1C(c1cc(F)ccc1Cl)NC2=O)c1cc(F)cc(C(F)(F)F)c1 (stereo not drawn) [Compound I-1608] | ≤ 0.1 |
| O=C(Nc1cc(-c2ccc3ncnn3c2)cc2c1C(c1cc(F)ccc1Cl)NC2=O)c1cc2ccccc2[nH]1 (stereo not drawn) [Compound I-1609] | 1 to 10 |
| O=C(Nc1cc(Br)cc2c1C(c1cc(F)ccc1Cl)NC2=O)c1cc2ccccc2[nH]1 (stereo not drawn) [Compound I-1610] | 1 to 10 |
| O=C(Nc1cccc2c1C(C1CCCCC1)NC2=O)c1cc(F)cc(C(F)(F)F)c1 (stereo not drawn) [Compound I-1611] | 1 to 10 |
| O=C(Nc1cc(-c2cnn(-c3ncc(F)cn3)c2)cc2c1C(c1cc(F)ccc1Cl)NC2=O)c1cc(F)cc(C(F)(F)F)c1 (stereo not drawn) [Compound I-1616] | ≤ 0.1 |
| O=C(Nc1cc(Br)cc2c1C(c1cc(F)ccc1Cl)NC2=O)c1nc2ccccc2[nH]1 (stereo not drawn) [Compound I-1617] | 1 to 10 |
| CC(C)(C#N)n1cc(-c2cc(NC(=O)c3cc(F)cc(C(F)(F)F)c3)c3c(c2)C(=O)NC3c2cc(F)ccc2Cl)cn1 (stereo not drawn) [Compound I-1618] | ≤ 0.1 |
| CC(C)(CC(F)(F)F)C(=O)Nc1cc(Br)cc2c1C(c1cc(F)ccc1Cl)NC2=O (stereo not drawn) [Compound I-1619] | 10 to 100 |
| CC(C)(C(=O)Nc1cc(Br)cc2c1C(c1cc(F)ccc1Cl)NC2=O)C(F)(F)F (stereo not drawn) [Compound I-1620] | 10 to 100 |
| O=C1NC(c2cc(F)ccc2Cl)c2c(NC(=O)C3CCCC3C(F)F)cc(Br)cc21 (stereo not drawn) [Compound I-1621] | 10 to 100 |

| SMILES | IC50 [µM] |
| --- | --- |
| O=C1NC(c2cc(F)ccc2Cl)c2c(NC(=O)C3CC4(C3)CC(F)(F)C4)cc(Br)cc21 (stereo not drawn) [Compound I-1622] | 1 to 10 |
| O=C1NC(c2cc(F)ccc2Cl)c2c(NC(=O)C3CCC4C(C3)C4(F)F)cc(Br)cc21 (stereo not drawn) [Compound I-1623] | 1 to 10 |
| O=C(Nc1cc(-c2ccc3nc(C4CC4)nn3c2)cc2c1C(c1cc(F)ccc1Cl)NC2=O)c1cc(F)cc(C(F)(F)F)c1 (stereo not drawn) [Compound I-1624] | ≤ 0.1 |
| O=C(Nc1cc(Cc2ccc3c(c2)CCNC3=O)cc2c1[C@@H](c1cc(F)ccc1Cl)NC2=O)c1cc(F)cc(C(F)(F)F)c1 [Compound I-1625] | 0.5 to 1 |
| O=C(Nc1cc(Cc2ccc3c(c2)CCNC3=O)cc2c1[C@H](c1cc(F)ccc1Cl)NC2=O)c1cc(F)cc(C(F)(F)F)c1 [Compound I-1626] | ≤ 0.1 |
| O=C(CC1CCCCC1)Nc1cc(-c2ccc3ncnn3c2)cc2c1C(c1cc(F)ccc1Cl)NC2=O (stereo not drawn) [Compound I-1627] | 1 to 10 |
| O=C(CCc1ccccc1)Nc1cc(-c2ccc3ncnn3c2)cc2c1C(c1cc(F)ccc1Cl)NC2=O (stereo not drawn) [Compound I-1628] | 1 to 10 |
| O=C(Nc1cccc2c1C(C1=CCCCC1)NC2=O)c1cc(F)cc(C(F)(F)F)c1 (stereo not drawn) [Compound I-1629] | 1 to 10 |
| O=C1NC(c2cc(F)ccc2Cl)c2c(NC(=O)C(Cl)c3ccccc3)cc(-c3ccc4ncnn4c3)cc21 (stereo not drawn) [Compound I-1630] | 1 to 10 |
| O=C(Nc1cc(-c2ccc3ncnn3c2)cc2c1C(c1cc(F)ccc1Cl)NC2=O)c1nc2ccccc2s1 (stereo not drawn) [Compound I-1631] | 1 to 10 |
| NC1(C(F)(F)F)CC(C(=O)Nc2cc(Br)cc3c2C(c2cc(F)ccc2Cl)NC3=O)C1 (stereo not drawn) [Compound I-1632] | 10 to 100 |
| O=C(CC1CC(F)(F)C1(F)F)Nc1cc(Br)cc2c1C(c1cc(F)ccc1Cl)NC2=O (stereo not drawn) [Compound I-1633] | 1 to 10 |
| O=C1NC(c2cc(F)ccc2Cl)c2c(NC(=O)C3CC4(C3)CC4(F)F)cc(Br)cc21 (stereo not drawn) [Compound I-1634] | 10 to 100 |
| CC12CC3CC(F)(C1)CC(C(=O)Nc1cc(Br)cc4c1C(c1cc(F)ccc1Cl)NC4=O)(C3)C2 (stereo not drawn) [Compound I-1635] | 0.1 to 0.5 |
| O=C1NC(c2cc(F)ccc2Cl)c2c(NC(=O)C3(c4ccc(Cl)c(Cl)c4)CCCC3)cc(Br)cc21 (stereo not drawn) [Compound I-1636] | 10 to 100 |
| O=C1NC(c2cc(F)ccc2Cl)c2c(NC(=O)C3(c4cccc(Cl)c4)CCCC3)cc(Br)cc21 (stereo not drawn) [Compound I-1637] | 10 to 100 |
| O=C1NC(c2cc(F)ccc2Cl)c2c(NC(=O)C3(c4cccc(F)c4)CCCC3)cc(Br)cc21 (stereo not drawn) [Compound I-1638] | 10 to 100 |
| Cc1cccc(C2(C(=O)Nc3cc(Br)cc4c3C(c3cc(F)ccc3Cl)NC4=O)CCCC2)c1 (stereo not drawn) [Compound I-1639] | 10 to 100 |
| CS(=O)(=O)Cc1cc(NC(=O)c2cc(F)cc(C(F)(F)F)c2)c2c(n1)C(=O)NC2c1cc(F)ccc1Cl (stereo not drawn) [Compound I-1644] | ≤ 0.1 |
| N#Cc1cc2ncnn2cc1-c1cc(NC(=O)c2cc(F)cc(C(F)(F)F)c2)c2c(c1)C(=O)N[C@@H]2c1cc(F)ccc1Cl [Compound I-1645] | 1 to 10 |
| O=C(Nc1cc(-c2ccc3ncnn3n2)cc2c1[C@@H](c1cc(F)ccc1Cl)NC2=O)c1cc(F)cc(C(F)(F)F)c1 [Compound I-1649] | 1 to 10 |
| O=C(Nc1cc(-c2ccc3ncnn3n2)cc2c1[C@H](c1cc(F)ccc1Cl)NC2=O)c1cc(F)cc(C(F)(F)F)c1 [Compound I-1650] | ≤ 0.1 |

| SMILES | IC50 [µM] |
| --- | --- |
| O=C(Nc1cc(-c2ccn3nc(C4CC4)nc3c2)cc2c1C(c1cc(F)ccc1Cl)NC2=O)c1cc(F)cc(C(F)(F)F)c1 (stereo not drawn) [Compound I-1651] | ≤ 0.1 |
| O=C(Nc1cc(-c2cn3ncnc3cc2F)cc2c1C(c1cc(F)ccc1Cl)NC2=O)c1cc(F)cc(C(F)(F)F)c1 (stereo not drawn) [Compound I-1652] | ≤ 0.1 |
| O=C(Nc1cc(-c2cc(F)c3ncnn3c2)cc2c1C(c1cc(F)ccc1Cl)NC2=O)c1cc(F)cc(C(F)(F)F)c1 (stereo not drawn) [Compound I-1653] | ≤ 0.1 |
| O=C(Nc1cc(-c2ccc3ncnn3c2)nc2c1C(C1CCCC1)NC2=O)c1cc(F)cc(C(F)(F)F)c1 (stereo not drawn) [Compound I-1654] | 10 to 100 |
| O=C(Nc1cc(-c2ccn3ncnc3c2)cc2c1C(c1cc(F)ccc1O)NC2=O)c1cc(F)cc(C(F)(F)F)c1 (stereo not drawn) [Compound I-1655] | 1 to 10 |
| Cn1cc(-c2cc(NC(=O)c3cc(F)cc(C(F)(F)F)c3)c3c(c2)C(=O)NC3c2cc(F)ccc2Cl)c(C#N)n1 (stereo not drawn) [Compound I-1656] | ≤ 0.1 |
| O=C(Nc1cc(-c2cnn(C(F)F)c2)cc2c1C(c1cc(F)ccc1Cl)NC2=O)c1cc(F)cc(C(F)(F)F)c1 (stereo not drawn) [Compound I-1657] | ≤ 0.1 |
| O=C1NC(c2cc(F)ccc2Cl)c2c(NCc3ccccc3)cc(Br)cc21 (stereo not drawn) [Compound I-1658] | 10 to 100 |
| O=C1NC(c2cc(F)ccc2Cl)c2c(Nc3nc4ccccc4s3)cc(-c3ccc4ncnn4c3)cc21 (stereo not drawn) [Compound I-1659] | 0.1 to 0.5 |
| CC(C)(C#N)n1cc(-c2cc(NC(=O)c3cc(F)cc(C(F)(F)F)c3)c3c(c2)C(=O)N[C@@H]3c2cc(F)ccc2Cl)cn1 [Compound I-1660] | 0.5 to 1 |
| CC(C)OC(C(=O)Nc1cc(-c2ccc3ncnn3c2)cc2c1C(c1cc(F)ccc1Cl)NC2=O)c1ccccc1 (stereo not drawn) [Compound I-1662] | 1 to 10 |
| O=C1NC(c2cc(F)ccc2Cl)c2c(NC(=O)N3CCCCC3)cc(-c3ccc4ncnn4c3)cc21 (stereo not drawn) [Compound I-1663] | 1 to 10 |
| O=C1NC(c2cc(F)ccc2Cl)c2c(NC(=O)C3CC(O)C3)cc(-c3ccc4ncnn4c3)cc21 (stereo not drawn) [Compound I-1664] | 10 to 100 |
| O=C(Cc1ccccc1)Nc1cc(-c2ccc3ncnn3c2)cc2c1C(c1cc(F)ccc1Cl)NC2=O (stereo not drawn) [Compound I-1665] | 10 to 100 |
| O=C(Nc1cccc2c1C(CO)NC2=O)c1cc(F)cc(C(F)(F)F)c1 (stereo not drawn) [Compound I-1666] | 10 to 100 |
| O=C(Nc1cc(-c2ccc3ncnn3c2)c(Cl)c2c1C(c1cc(F)ccc1Cl)NC2=O)c1cc(F)cc(C(F)(F)F)c1 (stereo not drawn) [Compound I-1667] | ≤ 0.1 |
| O=C1NC(c2cc(F)ccc2Cl)c2c(Nc3cn4ccccc4n3)cc(-c3ccc4ncnn4c3)cc21 (stereo not drawn) [Compound I-1668] | 1 to 10 |
| O=C(Nc1cc(-c2ccn3nccc3c2)cc2c1C(c1cc(F)ccc1Cl)NC2=O)c1cc(F)cc(C(F)(F)F)c1 (stereo not drawn) [Compound I-1669] | ≤ 0.1 |
| O=C(Nc1cc(-c2ccn3nncc3c2)cc2c1C(c1cc(F)ccc1Cl)NC2=O)c1cc(F)cc(C(F)(F)F)c1 (stereo not drawn) [Compound I-1670] | ≤ 0.1 |
| Nc1cc(-c2ccc3ncnn3c2)cc2c1C(c1cc(F)ccc1Cl)NC2=O (stereo not drawn) [Compound I-1671] | 10 to 100 |
| O=C1NC(c2cc(F)ccc2Cl)c2c(Br)cc(-c3ccc4ncnn4c3)cc21 (stereo not drawn) [Compound I-1672] | 10 to 100 |
| O=C(Nc1cccc2c1C(Cc1ccccc1)NC2=O)c1cc(F)cc(C(F)(F)F)c1 (stereo not drawn) [Compound I-1673] | 10 to 100 |
